Several values for one entry are separate records, joined by “and”; a condition that tells them apart may be missing. Equal values may be shown once.
What was measured:
[1] = cited from earlier work
[2] = target: sigma-1 receptor (Homo sapiens, UniProt Q99720); details: Fontanilla 2009; Ray 2010; cited from earlier work
[3] = target: 5-HT1B (Homo sapiens, UniProt P28222); details: Halberstadt & Geyer 2011; cited from earlier work
[4] = target: 5-HT1D (Homo sapiens, UniProt P28221); details: Halberstadt & Geyer 2011; cited from earlier work
[5] = comparable to psilocin; Jones 2024; cited from earlier work
[6] = target: 5-HT5A (Homo sapiens, UniProt P47898); details: Halberstadt & Geyer 2011; cited from earlier work
[7] = target: 5-HT7 (Homo sapiens, UniProt P34969); details: Halberstadt & Geyer 2011; cited from earlier work
[8] = cited from earlier work; remark: listed apart in the source
[9] = target: 5-HT6 (Homo sapiens, UniProt P50406); details: Halberstadt & Geyer 2011; cited from earlier work
[10] = Mystical Experience Questionnaire (MEQ30) after inhaling DMT according to a disclosed method; format: in vivo, human
Description: (§1) The study included nine participants with the following demographic characteristics:
(§2) For the MEQ and CEQ higher scores indicate a more mystical experience and a more challenging experience, respectively.

[11] = target: 5-HT2A (Homo sapiens, UniProt P28223); details: Halberstadt & Geyer 2011; cited from earlier work
[12] = target: Tropomyosin receptor kinase B (TrkB) (Homo sapiens, UniProt Q16620); details: Moliner 2023; cited from earlier work
[13] = target: 5-HT1E (Homo sapiens, UniProt P28566); details: Halberstadt & Geyer 2011; cited from earlier work
[14] = Challenging Experience Questionnaire (CEQ) after inhaling DMT according to a disclosed method; format: in vivo, human
Description: as §1, §2

[15] = test system: NMDA receptors; details: Moliner 2023; cited from earlier work
[16] = MEQ30 item score, c1-c9 = participants 1-9, after inhaled DMT per disclosed method
[17] = mean item score per participant, r7-r15 = participants 1-9
[18] = mean over the nine participants
[19] = total per participant, r7-r15 = participants 1-9
[20] = per participant, r8-r16 = participants 1-9

Sequence of Tropomyosin receptor kinase B (TrkB) (Q16620 32-822, species assumed): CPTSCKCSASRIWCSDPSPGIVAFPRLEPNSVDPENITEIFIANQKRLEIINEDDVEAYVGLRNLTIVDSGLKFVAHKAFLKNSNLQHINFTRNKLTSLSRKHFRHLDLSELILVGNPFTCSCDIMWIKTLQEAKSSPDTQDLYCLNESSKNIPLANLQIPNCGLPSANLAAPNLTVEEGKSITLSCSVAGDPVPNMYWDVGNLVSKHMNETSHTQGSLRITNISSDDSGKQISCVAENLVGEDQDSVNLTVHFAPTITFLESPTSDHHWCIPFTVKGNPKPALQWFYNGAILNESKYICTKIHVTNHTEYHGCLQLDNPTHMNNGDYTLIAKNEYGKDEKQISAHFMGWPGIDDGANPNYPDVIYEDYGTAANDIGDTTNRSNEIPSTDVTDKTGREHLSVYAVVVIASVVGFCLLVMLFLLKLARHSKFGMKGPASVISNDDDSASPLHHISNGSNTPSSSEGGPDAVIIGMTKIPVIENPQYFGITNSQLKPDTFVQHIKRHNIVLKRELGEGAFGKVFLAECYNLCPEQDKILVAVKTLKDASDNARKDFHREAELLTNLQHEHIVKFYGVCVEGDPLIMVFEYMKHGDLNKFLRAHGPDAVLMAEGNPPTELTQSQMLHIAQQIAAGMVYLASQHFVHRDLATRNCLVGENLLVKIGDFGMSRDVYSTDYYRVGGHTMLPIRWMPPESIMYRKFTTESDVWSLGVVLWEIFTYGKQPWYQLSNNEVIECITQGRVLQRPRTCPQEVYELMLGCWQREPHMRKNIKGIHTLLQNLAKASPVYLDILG
Sequence of 5-HT1B (P28222 whole entry, species assumed): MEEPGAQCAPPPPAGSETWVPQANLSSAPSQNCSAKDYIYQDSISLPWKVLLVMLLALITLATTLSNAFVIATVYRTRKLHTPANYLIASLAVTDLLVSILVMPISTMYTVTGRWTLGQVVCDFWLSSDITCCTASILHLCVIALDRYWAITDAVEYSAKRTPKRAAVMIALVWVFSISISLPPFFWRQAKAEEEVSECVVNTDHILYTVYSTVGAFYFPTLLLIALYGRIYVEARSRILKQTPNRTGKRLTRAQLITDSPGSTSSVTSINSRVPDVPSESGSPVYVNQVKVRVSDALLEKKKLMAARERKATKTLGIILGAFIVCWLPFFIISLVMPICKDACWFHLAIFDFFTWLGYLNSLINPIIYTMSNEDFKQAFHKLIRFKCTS
Sequence of sigma-1 receptor (Q99720 whole entry, species assumed): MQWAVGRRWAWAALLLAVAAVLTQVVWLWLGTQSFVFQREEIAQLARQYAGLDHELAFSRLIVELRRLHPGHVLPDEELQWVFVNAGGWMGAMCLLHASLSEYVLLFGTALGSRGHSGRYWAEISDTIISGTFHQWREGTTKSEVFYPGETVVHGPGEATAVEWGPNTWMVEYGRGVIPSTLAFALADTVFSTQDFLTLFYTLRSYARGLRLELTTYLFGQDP
Sequence of 5-HT1D (P28221 whole entry, species assumed): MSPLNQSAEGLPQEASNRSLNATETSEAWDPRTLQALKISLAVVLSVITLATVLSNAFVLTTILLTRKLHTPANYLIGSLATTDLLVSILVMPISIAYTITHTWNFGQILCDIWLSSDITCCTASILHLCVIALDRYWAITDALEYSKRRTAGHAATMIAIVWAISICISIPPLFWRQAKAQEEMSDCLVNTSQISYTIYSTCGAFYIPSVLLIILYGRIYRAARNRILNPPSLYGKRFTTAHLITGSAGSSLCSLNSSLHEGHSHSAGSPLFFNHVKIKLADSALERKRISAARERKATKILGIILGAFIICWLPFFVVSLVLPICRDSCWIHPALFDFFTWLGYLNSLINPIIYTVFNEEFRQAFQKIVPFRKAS
Sequence of 5-HT2A (P28223 whole entry): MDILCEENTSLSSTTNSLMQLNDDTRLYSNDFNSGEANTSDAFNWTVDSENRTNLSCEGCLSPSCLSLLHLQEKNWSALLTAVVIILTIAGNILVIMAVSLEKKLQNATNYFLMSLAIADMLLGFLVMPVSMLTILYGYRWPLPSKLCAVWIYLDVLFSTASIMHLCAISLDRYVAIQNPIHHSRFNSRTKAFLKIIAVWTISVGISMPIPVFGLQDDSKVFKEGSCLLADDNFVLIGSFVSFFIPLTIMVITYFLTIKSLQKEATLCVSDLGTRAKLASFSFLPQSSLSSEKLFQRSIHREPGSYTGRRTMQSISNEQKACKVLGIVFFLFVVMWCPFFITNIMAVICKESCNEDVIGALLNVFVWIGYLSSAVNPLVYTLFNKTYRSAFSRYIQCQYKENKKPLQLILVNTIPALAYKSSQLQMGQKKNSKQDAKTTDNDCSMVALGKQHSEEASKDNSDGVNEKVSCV
Sequence of 5-HT1E (P28566 whole entry, species assumed): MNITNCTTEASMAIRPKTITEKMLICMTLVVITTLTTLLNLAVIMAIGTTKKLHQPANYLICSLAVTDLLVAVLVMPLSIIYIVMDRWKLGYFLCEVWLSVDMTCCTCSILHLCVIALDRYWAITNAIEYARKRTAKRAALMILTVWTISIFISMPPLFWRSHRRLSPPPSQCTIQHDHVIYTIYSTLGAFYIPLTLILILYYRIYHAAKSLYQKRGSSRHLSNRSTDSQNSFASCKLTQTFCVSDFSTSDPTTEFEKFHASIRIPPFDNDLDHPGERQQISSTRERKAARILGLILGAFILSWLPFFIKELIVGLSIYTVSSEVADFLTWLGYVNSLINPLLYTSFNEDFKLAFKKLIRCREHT
Sequence of 5-HT6 (P50406 whole entry, species assumed): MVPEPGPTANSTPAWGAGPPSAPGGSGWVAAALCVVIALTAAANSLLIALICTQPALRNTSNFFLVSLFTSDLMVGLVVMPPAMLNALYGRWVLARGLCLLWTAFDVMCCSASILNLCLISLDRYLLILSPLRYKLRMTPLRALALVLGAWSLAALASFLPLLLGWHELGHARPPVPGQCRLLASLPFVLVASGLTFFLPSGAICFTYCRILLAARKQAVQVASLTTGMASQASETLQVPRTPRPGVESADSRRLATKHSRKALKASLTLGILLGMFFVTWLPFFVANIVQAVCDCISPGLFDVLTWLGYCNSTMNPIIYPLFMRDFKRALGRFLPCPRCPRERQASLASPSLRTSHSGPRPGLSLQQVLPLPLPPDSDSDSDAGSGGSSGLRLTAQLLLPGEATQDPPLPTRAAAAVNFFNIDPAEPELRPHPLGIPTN
Sequence of 5-HT5A (P47898 whole entry, species assumed): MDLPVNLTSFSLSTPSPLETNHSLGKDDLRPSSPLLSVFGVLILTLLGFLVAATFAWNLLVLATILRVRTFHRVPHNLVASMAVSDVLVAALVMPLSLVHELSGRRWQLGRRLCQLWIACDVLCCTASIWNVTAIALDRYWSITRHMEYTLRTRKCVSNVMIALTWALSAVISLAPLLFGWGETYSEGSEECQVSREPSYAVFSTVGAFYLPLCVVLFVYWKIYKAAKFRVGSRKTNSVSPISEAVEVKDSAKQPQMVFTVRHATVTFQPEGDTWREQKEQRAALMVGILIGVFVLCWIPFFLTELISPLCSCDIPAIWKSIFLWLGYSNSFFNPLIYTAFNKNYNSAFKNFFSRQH
Sequence of 5-HT7 (P34969 whole entry, species assumed): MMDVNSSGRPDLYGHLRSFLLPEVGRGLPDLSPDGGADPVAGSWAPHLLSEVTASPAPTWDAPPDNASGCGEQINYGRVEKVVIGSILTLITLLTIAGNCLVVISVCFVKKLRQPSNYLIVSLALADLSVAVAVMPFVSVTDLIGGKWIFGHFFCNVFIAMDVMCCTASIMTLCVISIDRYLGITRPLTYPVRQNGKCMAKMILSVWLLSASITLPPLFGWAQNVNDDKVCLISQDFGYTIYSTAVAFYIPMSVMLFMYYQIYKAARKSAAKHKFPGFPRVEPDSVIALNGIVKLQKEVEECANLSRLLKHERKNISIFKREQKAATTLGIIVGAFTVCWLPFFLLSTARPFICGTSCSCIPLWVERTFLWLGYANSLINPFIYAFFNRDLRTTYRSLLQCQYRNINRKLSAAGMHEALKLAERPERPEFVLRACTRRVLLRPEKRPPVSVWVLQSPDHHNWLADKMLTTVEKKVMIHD

O=C1Nc2ccc(Cl)cc2C(c2ccccc2Cl)=NC1O (racemic) [Lorazepam, ±7-chloro-5-(2-chlorophenyl)-1,3-dihydro-3-hydroxy-2H-1,4-benzodiazepin-2-one]
time of peak plasma concentrations (Tmax) ([1]; after oral administration): about 2 hours | half-life in human plasma ([1]; human plasma): about 12 hours

CN(C)CCc1c[nH]c2cccc(O)c12 [Psilocin, 4-hydroxy-N,N-dimethyltryptamine]
binding to the sigma-1 receptor [2]: no affinity | Ki [3]: 220 nM | Ki [4]: 36.4 nM

CC(=O)Oc1cccc2[nH]cc(CCN(C)C)c12 [Psilacetin, 4-acetoxy-N,N-dimethyltryptamine]
duration of subjective effects [5]: 4 to 8 h

CN(C)CCc1c[nH]c2ccccc12 [DMT, N,N-dimethyltryptamine]
Ki [6]: 2140 nM | Ki [7]: 206 nM | half life from the blood ([8]; blood): less than 16 minutes | half life from the brain ([8]; brain): less than six | binding to the sigma-1 receptor [2]: binds to the sigma-1 receptor | Ki [3]: 129 nM | Ki [9]: 464 nM | 2.1 Experience of amazement. [10, 16]: 3 and 5 and 4 | 2.4 Experience of ecstasy. [10, 16]: 3 and 5 and 4 | 2.5 Sense of awe or awesomeness. [10, 16]: 3 and 5 and 4 | 2.6 Feelings of joy. [10, 16]: 3 and 4 and 5 | 4.2 Feeling that you could not do justice to your experience by describing it in words. [10, 16]: 4 and 3 and 5 | 4.3 Feeling that it would be difficult to communicate your own experience to others who have not had similar experiences. [10, 16]: 3 and 4 and 5 | Ineffability, mean participant score (MEQ30 dimension) [10, 17]: 5.00 (4×) and 4.00 (3×) and 3.00 (2×) | Mysticism, mean participant score (MEQ30 dimension) [10, 17]: 2.53 and 3.33 and 5.00 and 3.87 and 4.00 (2×) and 4.73 and 1.33 and 3.60 | Positive Mood, mean participant score (MEQ30 dimension) [10, 17]: 4.33 (2×) and 3.50 (2×) and 4.83 and 4.50 and 2.67 (2×) and 5.00 | Transcendence, mean participant score (MEQ30 dimension) [10, 17]: 2.83 and 5.00 (2×) and 3.83 and 4.00 and 1.50 and 2.67 and 3.50 | Ineffability, Mean (MEQ30 dimension) [10, 18]: 4.22 | Mysticism, Mean (MEQ30 dimension) [10, 18]: 3.60 | Positive Mood, Mean (MEQ30 dimension) [10, 18]: 3.93 | Transcendence, Mean (MEQ30 dimension) [10, 18]: 3.35 | participants with a score >= 60% of the maximum score on the Ineffability subscale ([10]; nine participants): 100% | participants with a score >= 60% of the maximum score on the Mystical and Positive Mood subscales ([10]; nine participants): 78% | participants with a score >= 60% of the maximum score on the Transcendence of Time and Space subscale ([10]; nine participants): 55% | participants with a score >= 75% of the maximum score on the Ineffability subscale ([10]; nine participants): 78% | participants with a score >= 75% of the maximum score on the Transcendence of Time and Space subscale ([10]; nine participants): 44% | participants with a score >= 75% of the maximum scores on the Mystical and Positive Mood subscales ([10]; nine participants): 55% | participants with a score of greater than or equal to 60% on at least one MEQ30 subscale ([10]; nine participants): all participants | Ineffability, total score (MEQ30 subscale) [10, 19]: 15 (4×) and 12 (3×) and 9 (2×) | Mysticism, total score (MEQ30 subscale) [10, 19]: 38 and 50 and 75 and 58 and 60 (2×) and 71 and 20 and 54 | Positive Mood, total score (MEQ30 subscale) [10, 19]: 26 (2×) and 21 (2×) and 29 and 27 and 16 (2×) and 30 | Transcendence, total score (MEQ30 subscale) [10, 19]: 17 and 11 and 30 (2×) and 23 and 24 and 9 and 16 and 21 | Ki [11]: 127 nM | binding to TrkB [12]: do not bind TrkB directly | Ki [4]: 39 nM | Ki [13]: 517 nM | mean participant score, of the maximum score ([14]; Fear, Physical Distress, Insanity, Isolation, Death, and Paranoia subscales): less than 6% | mean participant score on each of the CEQ subscales, of the maximum possible score ([14]; each CEQ subscale): ≤ 10% | Death, Mean (CEQ dimension) [14, 18]: 0.44 | Fear, Mean (CEQ dimension) [14, 18]: 1.889 | Grief, Mean (CEQ dimension) [14, 18]: 3.11 | Insanity, Mean (CEQ dimension) [14, 18]: 0.89 | Isolation, Mean (CEQ dimension) [14, 18]: 0.78 | Paranoia, Mean (CEQ dimension) [14, 18]: 0.44 | Physical Distress, Mean (CEQ dimension) [14, 18]: 0.89 | Death (CEQ dimension score) [14, 20]: 1 (2×) and 2 and 0 (6×) | Fear (CEQ dimension score) [14, 20]: 0 (5×) and 5 (3×) and 2 | Grief (CEQ dimension score) [14, 20]: 1 and 6 (2×) and 0 (4×) and 12 and 3 | Insanity (CEQ dimension score) [14, 20]: 0 (5×) and 3 and 2 (2×) and 1 | Isolation (CEQ dimension score) [14, 20]: 0 (7×) and 3 and 4 | Paranoia (CEQ dimension score) [14, 20]: 0 (7×) and 2 (2×) | Physical Distress (CEQ dimension score) [14, 20]: 1 (3×) and 5 and 0 (5×)

N[C@@]1(c2ccccc2Cl)CCC[C@@H](O)C1=O [2R,6R-hydroxynorketamine]
binding to TrkB [12]: binds to TrkB | affinity to NMDA receptors [15]: low affinity

CNC1(c2ccccc2Cl)CCCCC1=O (stereo not shown) [Ketamine]
binding to TrkB [12]: does directly bind to TrkB

From patent US12396981B2 (priority 2023, dated 2025)
